# According to patent US10180423B2, “Micropillar arrays for assaying myelination” (The Regents of the University of California, priority 2012, dated 2019):
# Where a name gives a salt, the structure may show the parent alone. Read-outs that look alike come from different tables or passages of the source.
# Key:
# [1] = tested on: oligodendrocyte precursor cells (OPCs); conditions: for number of red "myelin rings" generated by oligodendrocytes (MBP positive staining) compared to control: compound added at 4 div for two days, images at 6 div; for generation of "myelin rings" on the micropillar platform: OPCs plated on micropillar arrays
# From the text: Using Axiovision software by Zeiss, we can automate the detection and quantification of the number of myelin rings without any of the confounding issues associated with the nanofibers (i.e. length of internodes, interfering cell processes, cell bodies, etc.). Essentially, oligodendrocyte precursor cells (OPCs) will be visualized as green rings whereas oligodendrocytes are indicated as red rings (FIG. 4C).
# (A-C) Immunostaining for myelination by oligodendrocytes (red, MBP positive staining) surrounding micropillars. Oligodendrocytes were cultured on micropillars for total of 6 days in vitro (div) and received compounds known to enhance differentiation at 4 div for two days. […] Images were acquired at 6 div. Scale bar, 50 μm.
# [2] = tested on: oligodendroglia; conditions: polystyrene nanofibers, no axons
# Method: The exquisite flexibility in the design of our nanofibers guarantees constant uniformity and density of fibers in the experimental design and any effects from compounds tested could be attributed solely to direct influences on oligodendroglia (FIG. 2), without confounding effects from neurons.
# Nanofibers are patterned and deposited into a 24-well format and placed under an automated fluorescence microscope with incubation chamber. Upon addition of oligodendroglia and small molecules, cells cultured with the nanofibers can be analyzed for effects on proliferation, survival, differentiation, and myelination in real time. […]
# To initiate a screen, a candidate list of known molecules and chemical inhibitors thought to play a role in promoting oligodendrocyte differentiation and myelination was compiled, and applied various FDA approved compounds in the treatment of psychiatric disorders. […] Additionally, the ability to quantify a functional readout for differentiation and myelination by oligodendrocytes, provides the unique opportunity to uncouple the axonal contribution on myelination.
# Oligodendrocyte differentiation and myelination were examined on our nanofiber platform (a). […] Cultures were immunostained after 7 days in vitro and analyzed for myelin basic protein (red).
# [3] = tested on: purified oligodendroglia cocultured with purified neurons
# From the text: In the cocultures, myelin internodes can be routinely identified by the “tube-like” structures (immunostained for myelin-specific proteins) formed by the oligodendrocytes. […] Overall, the coculture system recapitulates the timing of oligodendrocyte development and myelination in vivo and represents a powerful tool to validate compounds and factors that may both promote and inhibit oligodendroglial development. […] Additionally, the ability to quantify a functional readout for differentiation and myelination by oligodendrocytes, provides the unique opportunity to uncouple the axonal contribution on myelination.
# Cultures were immunostained after 7 days in vitro and analyzed for myelin basic protein (red).
SMILES,"number of red ""myelin rings"" generated by oligodendrocytes (MBP positive staining) compared to control ([1]; 30 ng/mL)","generation of ""myelin rings"" on the micropillar platform [1]","number of red ""myelin rings"" generated by oligodendrocytes (MBP positive staining) compared to control ([1]; 1 μM)",differentiation of oligodendrocytes and myelination of the nanofibers [2],differentiation and myelination of neuronal axons ([3]; purified oligodendroglia with purified neurons),"oligodendrocyte differentiation and myelination (myelin basic protein immunostaining) ([3]; quetiapine fumarate 100 nM, 7 days in vitro, Oligodendrocyte-DRG cocultures)"
N[C@@H](Cc1cc(I)c(Oc2ccc(O)c(I)c2)c(I)c1)C(=O)O [thyroid hormone],increases,significantly enhanced,,,,
OCCOCCN1CCN(C2=Nc3ccccc3Sc3ccccc32)CC1 [quetiapine fumarate],,significantly enhanced,increases,greatly enhanced,significantly enhances,significantly accelerated
